The NIST ThermoML archive (doi:10.1016/j.fluid.2010.12.012)
± gives the expanded uncertainty stated by the source.

Assay: wn = mass fraction of the nth substance listed
Details: 294.9 K, Liquid; for viscosity: Cone and plate viscometry; for mass density: Vibrating tube method

CC [ethane] + CO
Details	mass density [kg/m3]	viscosity [mPa·s]
1196 kPa, w1 = 0.056	750 ± 2	0.54 ± 0.02
2123 kPa, w1 = 0.12	720 ± 2	0.43 ± 0.02
3130 kPa, w1 = 0.225	671 ± 2	0.32 ± 0.01
